In one assay the test system is IFN-regulated genes. Briefly: DBA/1 pristane lupus model, IFN-regulated gene expression in whole blood (qPCR, IFN score). Particulars: Pristane-induced diseased animals, DBA/1 mice, once-a-day oral dosing. Format: in vivo, mouse. How it is done:
FIG. 1A through FIG. 1D show results of treatment with ER-888840 (5-((3R,5S)-3-amino-5-methylpiperidin-1-yl)quinoline-8-carbonitrile) in the DBA/1 pristane model. Figure Legend: Female DBA/1 mice at 10 weeks of age were given an intraperitoneal injection of 0.5 ml pristane or PBS. At 18 weeks of age animals were bled for pre-dosing baseline auto-antibody titers. Once-a-day oral dosing with Vehicle (Veh; 0.5% methyl-cellulose) or 11 mg/kg, 33 mg/kg, or 100 mg/kg of ER-888840 was begun at 18 weeks of age, 8 weeks after pristane injection and continued for 12 weeks of treatment. At the end of the experiment plasma samples were taken and anti-dsDNA and anti-histone (FIG. 1A) and anti-Sm/RNP and anti-RiboP (FIG. 1B) titers were determined by ELISA. (FIG. 1C) The expression of IFN-regulated genes in whole blood was measured by a qPCR panel after 8 weeks of treatment. […] (FIG. 1D) The interferon scores of individual mice were calculated (see Pharmacology Materials and Methods section for details regarding IFN score calculation) and groups compared using the Mann-Whitney t test.
FIG. 2A through 2E show results of treatment with ER-888840 in the DBA/1 pristane model. […] At the end of the experiment plasma was taken and anti-dsDNA (FIG. 2A), anti-RiboP (FIG. 2B), anti-histone (FIG. 2C) and anti-Sm/RNP (FIG. 2D) titers were determined by ELISA. […]

The subject of the next assay is Human TLR7/8. Briefly: Human PBMC cell-based assay, TLR7/8 (RNA-Ig), cytokine ELISA. As to conditions: Hu PBMC; ligand RNA-Ig; read-out: IC50, IL-6, Human TLR7/8. How it is done: Human peripheral blood mononuclear cells (PBMC) were isolated from freshly-drawn heparinized (10 USP units/ml, Hospira, Lakeforest, Ill.) healthy donor whole blood by density gradient (Histopaque® 1077, Sigma, Inc., St. Louis, Mo.). Briefly, 25 ml blood was diluted with 15 ml PBS (without Ca^2+, Mg^2+) in a 50 ml conical tube, and 12 ml Histopaque was underlaid using a spinal needle. Tubes were centrifuged for 45 minutes at 1200 rpm (350×g), and PBMC were collected from the buffy coat. Cells were then washed twice in PBS, and red blood cells were lysed by suspension in 5 ml ammonium chloride solution (1× Red Blood Cell Lysis Buffer, eBioscience) for 5 minutes at room temperature. After a final wash in PBS, PBMC were resuspended at a final concentration of 2×10^6/ml in RPMI-1640 media with L-glutamine (Invitrogen) and supplemented with 25 mM HEPES (Mediatech, Inc, Manassas Va.), 10% fetal bovine serum (HyClone, Logan, Utah), and Penicillin-Streptomycin-Glutamine (Mediatech) and plated at 100 ul/well (2×10^5 cells/well) in tissue culture treated 96-well plates (Falcon).
Antagonist compounds solubilized and serial diluted in 100% DMSO were added in triplicate to cells to yield a final concentration of 0.1% DMSO (v/v). Hydroxychloroquine (Acros Organics) solubilized and serial diluted in PBS was added in triplicate to cells. PBMC were incubated with antagonist compounds or HCQ for 30 minutes at 37° C., 5% CO2 before adding various TLR agonist reagents in 100 ul complete media per well as follows (final concentrations indicated): R848 (Resiquimod; GLSynthesis, Worcester, Mass.) at 1 uM for TLR7 and TLR8, Pam3CSK4 (InvivoGen) at 50 ng/ml for TLR1/2, LPS (Sigma) at 10 ng/ml for TLR4, and CpG-2216 (InvivoGen) at 5 ug/ml for TLR9. […] The resulting “RNA-Ig” stimulus was incubated at room temperature for 15-30 minutes before adding to cells. PBMC were incubated with the various TLR agonists for 20 hours at 37° C., 5% CO2. Cell culture supernatants were collected, and levels of various human cytokines were assessed as indicated by standard ELISA procedure according to the manufacturer's recommended protocol (BD Biosciences, Inc., San Diego, Calif.).
(In an ELISA, binding on a coated surface is turned into a signal by an enzyme label.)

Each structure is given as a SMILES string. “Also recorded” adds a separate entry of the source.

For the molecule `C[C@H]1C[C@@H](N)CN(c2ccc(C#N)c3ncccc23)C1` [ER-888840, 5-((3R,5S)-3-amino-5-methylpiperidin-1-yl)quinoline-8-carbonitrile], in the assay with IFN-regulated genes, the “effect on interferon-regulated gene expression (interferon score)” value was “dose-dependently significantly reduced interferon-regulated gene expression; also recorded: suppressed the upregulation of interferon-driven genes”. In addition, the IC50 in the assay with Human TLR7/8 was 1.4 nM.

For the origin of these results see US9663486B2, “Selectively substituted quinoline compounds” (EISAI R&D MANAGEMENT CO., LTD., priority 2013, dated 2017).
